Assay results taken from patent US11512085B2, “Heteroaryl compound having drug activity” (SHANGHAI DUDE MEDICAL TECHNOLOGY CO., LTD, priority 2017, dated 2022).
Like-named read-outs stand apart in the source and are kept apart here.

Columns and labels:
p-Btk/t-Btk = test: Western blotting of p-Btk/t-Btk in anti-IgG stimulated DOHH2 cells; assay type: cell-based; settings: DOHH2 cells, 5, 100, 2000 nM, 1 h, anti-IgG stimulation
Description: Biological Embodiment 4: Analysis of Influences of Test Compounds on p-Btk/t-Btk, p-PLCγ/t-PLCγ and p-Erk/t-Erk Expression Levels of DOHH2 Cells by Virtue of Western Blotting
1) DOHH2 cells on a logarithmic phase were collected;
2) a cell concentration was adjusted to a needed concentration;
3) 2 ml of cell suspension was added into a 6-well plate for performing culture, three different concentrations, that is, 5 nM, 100 nM and 2000 nM, of test samples were respectively set, and each concentration was repeated once;
4) test samples were added into plate wells, and DMSO served as control, wherein a final concentration of the DMSO was 0.1%;
5) culture was performed for 1 h; and […]
6. protein extraction and quantification […]
5) a protein concentration was determined by using Pierce™ BCA Protein Assay Kit; and
6) according to BCA protein quantification results, all samples were diluted to the same final concentration by adding 4×LDS sample buffer and 10× sample reducing agent into the RIPA buffer solution, and the solution was heated at 100° C. for 10 min. […]
10) chemiluminiscence was detected by Tanon 5200 multi.
7. Quantification of strip intensity
Intensity of each strip was quantified by using Image quant densitometry software. […]

[1] = Pharmacokinetic study, single intravenous and oral dose, SD rats; assay type: in vivo; settings: male, blood; for AUC(0-t) / Cmax / Tmax / half-life: Rat; for half-life: read-out: T½ (converted)
Description: Biological Embodiment 7: Pharmacokinetic Study of Performing Respective Single Intravenous and Oral Dose Delivery with Test Samples on SD Rats and Beagle Dogs
6 male SD rats were selected, and grouped and administered according to an experimental design table; 3 animals in the first group were intravenously administered once on the day of administration, wherein the administration dosage was 2 mg/kg, and the administration volume was 5 mL/kg; 3 animals in the second group were orally intragastrically administered once on the day of administration, wherein the administration dosage was 10 mg/kg, and the administration volume was 10 mL/kg.
All the animals were subjected to cage edge observation twice every day so as to determine whether the animals got ill or had injuries or death and other situations and whether supply of foods and water was sufficient. In the test process, all administered animals were subjected to detailed clinical observation before administration and at blood collection points.
Before administration (0 h) and within 0.083 h, 0.25 h, 0.5 h, 1 h, 2 h, 4 h, 6 h, 8 h and 24 h after administration, blood samples were collected from femoral veins at 10 time points so as to be used for blood concentration test.

TMD8 = test: In vitro tumor cell proliferation (CellTiter-Glo), TMD8; assay type: cell-based; settings: Homo sapiens, TMD8, 72 h; read-out: Growth IC50
Description: (§1) Biological Embodiment 8: Study on Effects of Active Compounds for Inhibiting In Vitro Tumor Cell Proliferation
(§2) Promega CellTiter-Glo cell activity detection kit by luminescence (Promega-G7573).
(§3) Tumor cell lines were cultured in a 5% of CO2 incubator at 37° C. according to respective culture conditions; and periodic passage was performed, and cells positioned in a logarithmic phase were taken for planking.
(§4) 3) 90 μL of cell suspension was added into each well of the culture plate, and a culture solution containing no cell was added into blank control;
(§5) 4) the culture plate was cultured overnight in the 5% of CO2 incubator having relative humidity of 100% at 37° C.
(§6) Preparation of a 400× compound storage plate: the compound was diluted from the maximum concentration gradient to the lowest concentration with DMSO. […]
(§7) The following steps were performed according to the specification of the Promega CellTiter-Glo cell activity detection kit by luminescence (Promega-G7573). […]
(§8) 9) the luminescence signal was detected on the 2104 EnVision plate reader.

SU-DHL-4 = test: In vitro tumor cell proliferation (CellTiter-Glo), SU-DHL-4; assay type: cell-based; settings: Homo sapiens, SU-DHL-4, 72 h; read-out: Growth IC50
Description: as §1, §2, §3, §4, §5, §6, §7, §8

WSU-DLCL-2 = test: In vitro tumor cell proliferation (CellTiter-Glo), WSU-DLCL-2; assay type: cell-based; settings: Homo sapiens, WSUDLCL2; WSU-DLCL-2, 72 h; read-out: Growth IC50
Description: as §1, §2, §3, §4, §5, §6, §7, §8

Granta-519 = test: In vitro tumor cell proliferation (CellTiter-Glo), Granta-519; assay type: cell-based; settings: Homo sapiens, Granta-519, 72 h; read-out: Growth IC50
Description: as §1, §2, §3, §4, §5, §6, §7, §8

In the case of `C=CC(=O)NN1CCCC(n2nc(-c3ccc(Oc4ccccc4)cc3)c3c(N)ncnc32)C1` (centres unmarked) [Embodiment 6, N-(3-(4-amino-3-(4-phenoxyphenyl)-1H-pyrazolo[3,4-D]pyrimidine-1-yl)-1-piperidyl)-acrylamide], the “relative level of p-Btk/t-Btk” value (p-Btk/t-Btk) is reported as “obviously decreased”, the AUC(0-t) ([1]; IV, 2 mg/kg) is reported as 271 ng·h/mL and the Cmax ([1]; IV, 2 mg/kg) is reported as 658 ng/mL. It also gave a Tmax ([1]; IV, 2 mg/kg) of 4.98 min, a half-life ([1]; IV, 2 mg/kg) of 10.8 min and an AUC(0-t) ([1]; PO, 10 mg/kg) of 449 ng·h/mL. It also gave a Cmax ([1]; PO, 10 mg/kg) of 447 ng/mL, a Tmax ([1]; PO, 10 mg/kg) of 25.2 min and a half-life ([1]; PO, 10 mg/kg) of 113 min. It also gave a bioavailability ([1]; rat, oral, 10 mg/kg) of 32.2%, an IC50 (TMD8) of 0.85 nM and an IC50 (SU-DHL-4) of 75 nM. For the same compound, the IC50 (WSU-DLCL-2) was 921 nM and the IC50 (Granta-519) was 7060 nM.
